# Source: a melting point compilation (Tetko et al.; mined from patent text by program, amines drawn as free bases though some values may be those of a salt)
row,melting point [°C],Structure (SMILES)
1,144,Cc1c(C=C(C#N)C#N)cc(C(C)(C)C)c(O)c1Br
2,58 to 59,CCOC(=O)c1sc(Cl)nc1C(F)(F)F
3,12.5,CC(C)C/C=C\CCCCCCCCCC(=O)O
4,178 to 180,Cc1c(CC(=O)O)c2cc(OCc3csc(-c4ccccc4)n3)ccc2n1Cc1csc(-c2ccc(Cl)cc2)n1
5,77 to 78.5,CCc1nc(-c2ccc(OCCCn3ccnc3C)cc2)no1
6,119 to 120,CCOC(=O)CCc1cc(O)nn1C(C)C
7,158 to 159,CCC(CC)n1cnc2c1c(=O)n(C)c(=O)n2-c1ccc(Cl)cc1Cl
8,224 to 225,CC(C(N)=O)c1ccc2c(c1)C(=O)Cc1cc(F)ccc1S2 (configuration not stated)
9,266 to 267,CC1(C)Oc2ccc(C#N)cc2[C@H](N(Cc2ncc[nH]2)c2ccc(Cl)cc2)[C@H]1O
10,180 to 182,CCOc1cc(Cl)ccc1C=NNC(=N)NN=Cc1ccc(Cl)cc1OCC
11,95,CCC[C@@H](C)C(C(=O)O)C(=O)O
12,62 to 64,Cc1cc(C)c(C2C(=O)CC(CC3CCOC3)CC2=O)c(C)c1 (configuration not stated)
13,205 to 215,COc1cc2c(cc1C(F)(F)F)N(C(=O)Nc1ccc(-c3ccccn3)s1)CC2
14,226,ON=C(c1ccc(F)cc1)c1ccc2nc(N[C@@H]3CCc4ccccc43)ccc2c1
15,195 to 197,COc1ccc(S(=O)(=O)N2CCc3cccc(-c4ccccn4)c32)cc1
16,172,COCCC(=O)OC1(C(=O)CO)CCC2C3CCC4=CC(=O)CCC4(C)C3C(O)CC21C (configuration not stated)
17,266 to 268,CC(C)c1cc(-c2ccc3c(c2)OCO3)[nH]c(=O)c1C#N
18,116,COc1ccc(C(=O)c2ccc([N+](=O)[O-])c(CO)c2)cc1
19,153 to 156,COc1c(N2CCNC(CF)C2)c(F)cc2c(=O)c(C(=O)O)cn([C@@H]3C[C@@H]3F)c12 (some centres not stated)
20,98 to 100,CCOC(=O)c1cc(F)c(N2CCC(NC(=O)OC(C)(C)C)C2)cc1F (configuration not stated)

# Continued, compound first:
row,Structure (SMILES),melting point [°C]
1,CCCCOC1OC(CO)C(O)C(O)(N(CC2CCCCC2)C(=O)N(CCCl)N=O)C1O (configuration not stated),75 to 77
2,COc1cc(OC)c2c(=O)cc(-c3cccc(C)c3)oc2c1C1=CCN(C)CC1,109 to 110
3,N#CC1=CCC(c2ccccc2)c2ccccc21 (configuration not stated),66 to 67
4,Nc1cccc(C(=O)c2cccc(C(=O)c3cccc(N)c3)c2)c1,114 to 117
5,Cc1ccc(N)c(C(=O)c2ccc(F)cc2)c1,70 to 71.5
6,CCCCCC(=O)Nc1ccc(NNC(=O)N(C)c2cccc3c2C(=O)N(C)C3=O)cc1,115 to 118
7,Cc1ccc(-c2cnc(N)c([N+](=O)[O-])c2)cc1,183 to 184
8,N#Cc1ccc(N)cc1N,102 to 103
9,COC(=O)c1nn(Cc2ccc(Cl)cc2Cl)c2ccccc12,168 to 170
10,CCOC(=O)c1cn(-c2cccs2)c2c(F)c(F)c(F)c(C)c2c1=O,198 to 200
11,COc1c(OC(C)=O)ccc2cc[nH]c12,241 to 244
12,COc1ccc(Cn2cnc(N)c3nc(C(C)C)nc2-3)cc1OC1CCCC1,190 to 193
13,Oc1nc(O)c2c(n1)CCCS2,> 300
14,CC1(COCc2ccccc2)COC(c2ccc([N+](=O)[O-])cc2)=N1 (configuration not stated),65 to 66
15,COc1ccc(NC(=O)/C=C/c2ccc([N+](=O)[O-])c(F)c2)cc1[N+](=O)[O-],263 to 265
16,NC(=S)NN1CCc2cc(Cl)ccc21,199 to 200

row,Structure (SMILES),melting point [°C]
1,N#Cc1cnn2c(-c3cc(Cl)ccc3Cl)ccnc12,202 to 204
2,CCCCCCSC1=CC(=O)NC1=O,99 to 101
3,Nc1cc(Br)c([N+](=O)[O-])cc1Br,178
4,CCOC(=O)c1c2ccc(Cl)cc2c(-c2ccccc2)n1CCCOS(C)(=O)=O,91 to 92
5,Cc1nc(NC(=O)c2cnn3c(C(F)(F)F)cc(-c4ccc(C(F)(F)F)c(OCC(F)(F)F)c4)nc23)sc1S(=O)(=O)NC(C)(C)CO,275
6,O=C(O)Cc1cc(Br)cc(Br)c1OCCc1ccccc1,81 to 84
7,COc1cc(OC)c(-c2cc3ccccc3[nH]2)cc1C=CC(=O)c1ccc(S(=O)(=O)N(C)C)cc1,158 to 162
8,N#Cc1cccc2c(N)c([N+](=O)[O-])ccc12,260 to 262
9,CO/C=C(/C(=O)OC)c1ccccc1Oc1nc(Cl)nnc1Cl,140 to 142
10,Cc1ccc(CC2CCN(C(=O)c3nc4ccc(O)cc4[nH]3)CC2)cc1,93
11,O=C(O)c1nnn(Cc2ccccc2)n1,127 to 130
12,CC(=O)C1=Cc2ccccc2NN=C1,66 to 68
13,CC(c1cc(Br)c(O)c(Br)c1)(c1cc(Br)c(O)c(Br)c1)c1cc(Br)c(O)c(Br)c1,160
14,NC(=O)c1ccc(OCC2CO2)c(I)c1 (configuration not stated),149 to 151
15,CC(=O)Nc1nc(-c2ccc(S(C)=O)cc2)cs1 (configuration not stated),274
16,C=C(CN1C(=O)[C@H]2CCCN2C(=O)c2ccccc21)c1ccc(C(=O)Nc2ccccc2N)cc1,160 to 162
